# Columns and labels:
# [1] = test system: Staphylococcus aureus; assay: Antibacterial activity against Staphylococcus aureus ATCC 29213 assessed as reduction in bacterial growth after 24 hrs by CLSI based broth micro dilution method; format: functional
# [2] = test system: Staphylococcus aureus; assay: Antibacterial activity against methicillin-resistant Staphylococcus aureus N315 assessed as reduction in bacterial growth after 24 hrs by CLSI based broth micro dilution method; format: functional
# [3] = test system: Staphylococcus aureus; assay: Antibacterial activity against methicillin-resistant Staphylococcus aureus NCTC10442 assessed as reduction in bacterial growth after 24 hrs by CLSI based broth micro dilution method; format: functional
# [4] = test system: Staphylococcus aureus; assay: Bactericidal activity against Staphylococcus aureus ATCC 29213 assessed as reduction in bacterial load at MIC concentration preincubated for 240 mins followed by compound washout further subculturing and measured after 24 hrs by time-kill assay; format: functional; settings: 4 h
# [5] = test system: Staphylococcus aureus; assay: Bactericidal activity against Staphylococcus aureus ATCC 29213 assessed as reduction in bacterial load at 2 time of MIC concentration preincubated for 240 mins followed by compound washout further subculturing and measured after 24 hrs by time-kill assay; format: functional; settings: 4 h
# [6] = test system: Staphylococcus aureus; assay: Antibacterial activity against Staphylococcus aureus ATCC 29213 infected in C57BL6 mouse assessed as reduction in bacterial load at 33.65 mmol/L, administered topically at 2 hrs interval for 3 days; format: functional; settings: time 3 day
# [7] = test system: Escherichia coli; assay: Antibacterial activity against Escherichia coli ATCC 25922 assessed as reduction in bacterial growth after 24 hrs by CLSI based broth micro dilution method; format: functional
# [8] = Hemolytic activity in rabbit RBC after 60 mins; format: ADME, cell-based, Oryctolagus cuniculus, Erythrocyte; settings: rabbit red blood cells (erythrocytes)
Compound,MIC [1] [µg/mL],MIC [2] [µg/mL],MIC [3] [µg/mL],log(activity) [4],log(activity) [5],log(activity) [6],MIC [7] [µg/mL],HC50 at 1 h [8] [µg/mL]
CN[C@H](CC(C)C)C(=O)N[C@H]1C(=O)N[C@@H](CC(N)=O)C(=O)N[C@H]2C(=O)N[C@H]3C(=O)N[C@H](C(=O)N[C@H](C(=O)O)c4cc(O)cc(O)c4-c4cc3ccc4O)[C@H](O)c3ccc(c(Cl)c3)Oc3cc2cc(c3O[C@@H]2O[C@H](CO)[C@@H](O)[C@H](O)[C@H]2O[C@H]2C[C@](C)(N)[C@H](O)[C@H](C)O2)Oc2ccc(cc2Cl)[C@H]1O [VANCOMYCIN],0.78,1.56,1.56,1.1,1.1,4.16,–,–
CC(C)=CCOc1ccc(/C=C/C(=O)c2ccc(OCC=C(C)C)cc2OCC(=O)N[C@@H](CCCNC(=N)N)C(N)=O)cc1,3.13,1.56,3.13,–,–,–,12.5,78.7
COC(=O)[C@H](CCCNC(=N)N)NC(=O)COc1cc(OCC=C(C)C)ccc1C(=O)/C=C/c1ccc(OCC=C(C)C)cc1,1.56,1.56,1.56,–,–,–,50,70
CC(C)=CCOc1ccc(/C=C/C(=O)c2ccc(OCC=C(C)C)cc2OCC(=O)NCCCN(C)C)cc1,12.5,12.5,12.5,–,–,–,> 50,78.2
CC(C)=CCOc1ccc(/C=C/C(=O)c2ccc(OCC=C(C)C)cc2OCC(=O)O)cc1 [SOFALCONE],> 50,50,> 50,–,–,–,> 50,> 200
CC(C)=CCOc1ccc(/C=C/C(=O)c2ccc(OCC=C(C)C)cc2OCC(=O)N[C@@H](CCCNC(=N)N)C(=O)NCCCN(C)C)cc1,–,–,–,–,–,–,25,181
CC(C)=CCOc1ccc(/C=C/C(=O)c2ccc(OCC=C(C)C)cc2OCC(=O)NCCCN2CCN(C)CC2)cc1,6.25,6.25,6.25,–,–,–,> 100,36.5
CC(C)=CCOc1ccc(/C=C/C(=O)c2ccc(OCC=C(C)C)cc2OCC(=O)NCCCN)cc1,3.13,1.56,3.13,–,–,–,50,47
CC(C)=CCOc1ccc(/C=C/C(=O)c2ccc(OCC=C(C)C)cc2OCC(=O)NCCCN2CCCC2)cc1,6.25,3.13,6.25,–,–,–,> 50,53.4
CCCNC(=O)COc1cc(OCC=C(C)C)ccc1C(=O)/C=C/c1ccc(OCC=C(C)C)cc1,> 50,> 50,> 50,–,–,–,> 100,> 200
COC(=O)[C@H](CCCNC(=N)N)NC(=O)[C@H](CCCNC(=N)N)NC(=O)COc1cc(OCC=C(C)C)ccc1C(=O)/C=C/c1ccc(OCC=C(C)C)cc1,3.13,3.13,3.13,–,–,–,12.5,120
O=C(N[C@H](CO)[C@H](O)c1ccc([N+](=O)[O-])cc1)C(Cl)Cl [CHLORAMPHENICOL],–,–,–,–,–,–,3.13,–
CC(C)=CCOc1ccc(/C=C/C(=O)c2ccc(OCC=C(C)C)cc2OCC(=O)NCCCNC(=N)N)cc1,1.56,1.56,1.56,–,–,–,25,56.5
CCN(CC)CCCNC(=O)COc1cc(OCC=C(C)C)ccc1C(=O)/C=C/c1ccc(OCC=C(C)C)cc1,6.25,–,6.25,–,–,–,> 50,65.7
COC(=O)[C@H](Cc1c[nH]cn1)NC(=O)COc1cc(OCC=C(C)C)ccc1C(=O)/C=C/c1ccc(OCC=C(C)C)cc1,> 50,–,–,–,–,–,> 50,> 200
CCCCN(CCCC)CCCNC(=O)COc1cc(OCC=C(C)C)ccc1C(=O)/C=C/c1ccc(OCC=C(C)C)cc1,12.5,6.25,6.25,–,–,–,> 50,> 200
CC(C)=CCOc1ccc(/C=C/C(=O)c2ccc(OCC=C(C)C)cc2OCC(=O)N[C@@H](CCCNC(=N)N)C(=O)NCCCN)cc1,–,–,–,–,–,–,6.25,277

# From ChEMBL document CHEMBL4765377, “Design, synthesis, and evaluation of amphiphilic sofalcone derivatives as potent Gram-positive antibacterial agents” (Eur J Med Chem, 2020)
